The target in the experiment is T1, Amyloid-beta A4 precursor protein-binding family A member 1 (Rattus norvegicus, UniProt O35430).
T1 sequence (O35430 whole entry): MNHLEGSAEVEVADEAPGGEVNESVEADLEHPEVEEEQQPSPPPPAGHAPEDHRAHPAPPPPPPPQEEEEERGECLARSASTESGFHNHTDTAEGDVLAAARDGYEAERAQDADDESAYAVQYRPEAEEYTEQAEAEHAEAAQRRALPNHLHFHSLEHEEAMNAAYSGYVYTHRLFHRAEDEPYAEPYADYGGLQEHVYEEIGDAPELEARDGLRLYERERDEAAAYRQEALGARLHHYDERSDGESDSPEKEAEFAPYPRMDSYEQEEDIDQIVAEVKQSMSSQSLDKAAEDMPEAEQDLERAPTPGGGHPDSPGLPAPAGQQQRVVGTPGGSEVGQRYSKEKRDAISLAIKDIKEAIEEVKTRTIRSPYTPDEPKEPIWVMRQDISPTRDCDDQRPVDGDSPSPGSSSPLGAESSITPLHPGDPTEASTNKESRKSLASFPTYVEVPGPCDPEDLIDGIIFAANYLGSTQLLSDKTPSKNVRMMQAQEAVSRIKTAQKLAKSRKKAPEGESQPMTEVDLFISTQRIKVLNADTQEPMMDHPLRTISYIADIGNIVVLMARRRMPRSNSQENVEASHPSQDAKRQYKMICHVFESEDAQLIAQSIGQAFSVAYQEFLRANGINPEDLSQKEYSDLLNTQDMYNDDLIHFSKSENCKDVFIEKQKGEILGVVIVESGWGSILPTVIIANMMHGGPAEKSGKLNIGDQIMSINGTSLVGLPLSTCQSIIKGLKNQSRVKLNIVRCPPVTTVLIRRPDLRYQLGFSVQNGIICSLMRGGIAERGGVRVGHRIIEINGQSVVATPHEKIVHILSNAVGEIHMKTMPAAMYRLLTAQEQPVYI
Nature of the experiment: disruptors of Mint-PDZ/N-type channel peptide interaction – biochemical, HTRF, SAR follow-up (AID 2489). (TR-FRET usually uses a lanthanide donor and a delayed reading to cut background.)

Where “and” joins values, the source holds several entries; their conditions need not be identical. Equal entries are not always repeated. Some results are limits rather than exact numbers.

As a reminder, the IC50 is the concentration at which inhibition is half-maximal. Read a low IC50 as higher potency.

In turn, `CCCCc1ccc(CC2=C(C(=O)OCC)C(=O)c3ccccc3C2=O)cc1` yielded an IC50 of 16.2 µM.

As to `CC12C=CC(C)(O1)c1c2c(O)n(-c2ccc3c(c2)OCO3)c1O`, the IC50 is > 56.8 µM.

With `CC(=O)Oc1cccc(-n2c(O)c3c(c2O)C2(C)C=CC3(C)O2)c1`, the concentration for half-maximal inhibition (IC50) is 12 µM and 18.3 µM.

On to `CC12C=CC(C)(O1)c1c2c(O)n(-c2ccc(Cl)cc2)c1O`, for which the half-maximal inhibitory concentration (IC50) was > 56.8 µM.

In turn, `Cc1ccc(-n2c(O)c3c(c2O)C2(C)C=CC3(C)O2)cc1` displayed an IC50 of 11.5 µM.

Take `CC12C=CC(C)(O1)c1c2c(O)n(-c2ccc(F)cc2)c1O` [2-(4-fluorophenyl)-4,7-dimethyl-3a,7a-dihydro-octahydro-1H-4,7-epoxyisoindole-1,3-dione]: the IC50 turned out to be 10.7 µM.

On to `Cc1cccc(-n2c(O)c3c(c2O)C2(C)C=CC3(C)O2)c1` [4,7-dimethyl-2-(3-methylphenyl)-3a,7a-dihydro-octahydro-1H-4,7-epoxyisoindole-1,3-dione], for which the IC50 is 27.6 µM.

As for `CC12C=CC(C)(O1)c1c2c(O)n(-c2ccccc2)c1O` [4,7-dimethyl-2-phenyl-3a,7a-dihydro-octahydro-1H-4,7-epoxyisoindole-1,3-dione], the 50% inhibitory concentration (IC50) was determined as 11.7 µM.

`CC(=O)Oc1ccc(-n2c(O)c3c(c2O)C2(C)C=CC3(C)O2)cc1` [MLS000107813]: the IC50 stood at 7.82 µM.

As to `COC(=O)c1cc(-n2c(O)c3c(c2O)C2(C)C=CC3(C)O2)ccc1Cl` [MLS000107828], the half-inhibitory concentration (IC50) is > 56.8 µM.

`CCCc1ccc(CC2=C(C(=O)OCC)C(=O)c3ccccc3C2=O)cc1` [MLS000571357] registered an IC50 of 7.19 µM.

Consider `CC(=O)Oc1ccc(-n2c(O)c3c(c2O)C2C=CC3O2)cc1` [[4-(1,3-dioxo-3a,4,7,7a-tetrahydro-octahydro-1H-4,7-epoxyisoindol-2-yl)phenyl] acetate], for which the IC50 was > 56.8 µM.

Source of the values: BindingDB's records for doi:10.7270/Q21V5CDC (Burnham Center For Chemical Genomics, 2010).
